Data on 19 molecules can be found in patent US11413278B2, “Compounds and methods for promoting stress resistance” (priority 2015, dated 2022).

Entries after “also recorded” stand apart in the source; their conditions may differ. Like-named read-outs stand apart in the source and are kept apart here.

For data set [1], the system named is human dermal fibroblast (HDF) primary cells. The experiment in a line: H2O2-resistance in primary human dermal fibroblasts. Format: cell-based. The conditions noted are these: for fold induction at 10 µM: Homo sapiens; for Assay 6: H2O2-resistant, at 10 uM, human dermal fibroblast (HDF) primary cells: YES/NO.
Data set [2] concerns WI-38 cells. The following applies: for Percentage of propidium iodide-positive dead cells (no H2O2 stress treatment), at 10 uM: negative control 0.41% ± 0.23%; for PI cell-death imaging without H2O2 (indicating potential toxicity): Assay 8(k), without H2O2, at 10 uM; for Percentage of propidium iodide-positive (dead) cells under normal conditions (qualitative) / PI-positive dead cells under normal conditions: WI-38, no H2O2; for PI-positive dead cells under normal conditions: control 0.4±0.2%. The protocol:
WI-38 cells were seeded on 384-well plates for 24 hrs and then incubated with small molecules for 24 hrs. […] Images were collected on an INCell Analyzer 2000 (GE) and analyzed with the Developer software.

The test system of data set [3] is HTB-178 lung tumor cells (EGFR+, PIK3CA+, RB1−, TP53−). The experiment in a line: Killing effects on HTB-178 tumor cells. The conditions noted are these: for Assay 21: Potential killing effects on HTB-178 tumor cells: 10 uM, YES/NO; for Potential killing effects on HTB-178 tumor cells, 1st: Assay 1(y), at 10 uM. Format: cell-based, human.
[4] abbreviates: Experiment 1, HDF cells, read-out: Experiment 1, HDF cells (under H2O2 stress treatment), at 10 uM (fold change).
Where [5] appears, read: Experiment 2, HDF cells, read-out: Experiment 2, HDF cells (under H2O2 stress treatment), at 10 uM (fold change).

For the molecule `CNC(=O)/C(C#N)=C/c1c(Oc2ccc(C(C)(C)C)cc2)nc2ccccn2c1=O` [Gr-5D], the fold induction at 10 µM in data set [1] (setting [4]) was 0.18; in data set [1] (setting [5]), 2.66. The “Assay 6: H2O2-resistant, at 10 uM, human dermal fibroblast (HDF) primary cells” value (“Assay 6: H2O2-resistant, at 10 uM” below) in data set [1] is “YES”. The “Percentage of propidium iodide-positive dead cells (no H2O2 stress treatment), at 10 uM” value in data set [2] was 0.51% ± 0.18%,.

Consider `COc1ccc(/C=C2\SC(=N)N(c3nccs3)C2=O)cc1` [O21], for which the fold induction at 10 µM in data set [1] (setting [4]) was 140. Besides, the fold induction at 10 µM in data set [1] (setting [5]) was 25.5. For the same molecule, the “Assay 6: H2O2-resistant, at 10 uM” value in data set [1] is reported as “YES”. Further, in data set [2], the “PI cell-death imaging without H2O2 (indicating potential toxicity)” value (shortened to “PI cell-death imaging without H2O2”) was “YES”; the “Percentage of propidium iodide-positive (dead) cells under normal conditions (qualitative)” value (“Percentage … (qualitative)” below) was “increased the percentage”; the “PI-positive dead cells under normal conditions” value (from here on “PI-positive dead cells”) worked out at 1.1±0.4%; the “Percentage of propidium iodide-positive dead cells (no H2O2 stress treatment), at 10 uM” value is recorded as 1.09% ± 0.39%,.

For `Oc1ccccc1-c1noc(-c2ccccc2O)n1` [O27], in data set [1], the “Assay 6: H2O2-resistant, at 10 uM” value was “YES”. In addition, the “Percentage of propidium iodide-positive dead cells (no H2O2 stress treatment), at 10 uM” value in data set [2] is recorded as 0.50% ± 0.17%,. In data set [3], the “Assay 21: Potential killing effects on HTB-178 tumor cells” value is reported as “YES”.

For `O=C(Nc1ccc(Cl)c(Cl)c1)c1ccc([N+](=O)[O-])o1` [Gr-1G], the “Assay 6: H2O2-resistant, at 10 uM” value in data set [1] is listed as “YES”. In data set [2], the “PI cell-death imaging without H2O2” value was “YES” and the “PI-positive dead cells” value is on record as 7.1%±1.1%.

As to `O=C(NCc1cccnc1)/C(=C\c1ccc(Br)cc1)S(=O)(=O)c1ccccc1` [Gr-7B], the fold induction at 10 µM in data set [1] (setting [4]) was 3.71. Also, the fold induction at 10 µM in data set [1] (setting [5]) worked out at 3.35. For the same molecule, the “Assay 6: H2O2-resistant, at 10 uM” value in data set [1] is listed as “YES”. Also, in data set [2], the “PI cell-death imaging without H2O2” value is “YES” and the “PI-positive dead cells” value was 3.6%±0.7%. In data set [3], the “Assay 21: Potential killing effects on HTB-178 tumor cells” value is reported as “YES” and the “Potential killing effects on HTB-178 tumor cells, 1st” value is on record as “YES;”. Also, the “Toxicity / viability of HTB-178 lung tumor cells” value in data set [3] (10 μM, preliminary data) is reported as “exerted more pronounced toxicity; also recorded: significantly reduce the viability”.

Take `O=C(Nc1cccc(C(F)(F)F)c1)c1ccc([N+](=O)[O-])o1` [Gr-1E]: the fold induction at 10 µM in data set [1] (setting [4]) amounted to 1.4; in data set [1] (setting [5]), 31. Besides, the “Assay 6: H2O2-resistant, at 10 uM” value in data set [1] was “YES”. Moreover, in data set [2], the “Percentage of propidium iodide-positive dead cells (no H2O2 stress treatment), at 10 uM” value is recorded as 0.71% ± 0.28%,.

Turning to `Cc1cc(N)n(-c2ccccc2C(=O)O)n1` [Gr-6A], the fold induction at 10 µM stood at 10.3 in data set [1] (setting [4]) and 39.3 in data set [1] (setting [5]). The “Assay 6: H2O2-resistant, at 10 uM” value in data set [1] was “YES”. In addition, the “Percentage of propidium iodide-positive dead cells (no H2O2 stress treatment), at 10 uM” value in data set [2] is on record as 0.41% ± 0.17%,. The “Potential killing effects on HTB-178 tumor cells, 1st” value in data set [3] was “YES;”.

Regarding `O=C1NCCCc2cc(Cl)sc21` [O1], the fold induction at 10 µM in data set [1] (setting [4]) is 2.95; in data set [1] (setting [5]), 17.8. Besides, the “Assay 6: H2O2-resistant, at 10 uM” value in data set [1] is on record as “YES”. Moreover, in data set [2], the “Percentage of propidium iodide-positive dead cells (no H2O2 stress treatment), at 10 uM” value is 0.30% ± 0.13%,.

Take `COc1ccc(C(=O)/C=C/c2cccc(Cl)c2)c(OC)c1` [Gr-4C]: the fold induction at 10 µM was 4.32 in data set [1] (setting [4]) and 3.15 in data set [1] (setting [5]). Besides, the “Assay 6: H2O2-resistant, at 10 uM” value in data set [1] was “YES”. For the same molecule, the “Percentage of propidium iodide-positive dead cells (no H2O2 stress treatment), at 10 uM” value in data set [2] was 0.47% ± 0.20%,.

`COc1ccc(C(=O)/C=C/c2ccc(F)cc2)c(OC)c1` [Gr-4A]: the results for the fold induction at 10 µM in data set [1] (setting [4]) and in data set [1] (setting [5]) were 7.16 and 2.35, respectively. Moreover, the “Assay 6: H2O2-resistant, at 10 uM” value in data set [1] is “YES”. Further, the “Percentage of propidium iodide-positive dead cells (no H2O2 stress treatment), at 10 uM” value in data set [2] was 0.39% ± 0.14%,.

As to `COC(=O)CCc1sc2c(c1[N+](=O)[O-])NC(=O)CCC2` [O20], the fold induction at 10 µM in data set [1] (setting [4]) amounted to 1.08. In addition, the fold induction at 10 µM in data set [1] (setting [5]) worked out at 63.9. The “Assay 6: H2O2-resistant, at 10 uM” value in data set [1] is “YES”. In data set [2], the “PI cell-death imaging without H2O2” value is listed as “YES”; the “PI-positive dead cells” value is given as 0.7%±0.3%; the “Percentage of propidium iodide-positive dead cells (no H2O2 stress treatment), at 10 uM” value was 0.73% ± 0.25%,.

As for `O=C(/C=C/c1cn(-c2ccccc2)nc1-c1cccnc1)c1ccccc1` [Gr-6B], the fold induction at 10 µM in data set [1] (setting [4]) was determined as 3.6; in data set [1] (setting [5]), 57.6. For the same molecule, in data set [1], the “Assay 6: H2O2-resistant, at 10 uM” value was “YES”. The “Percentage of propidium iodide-positive dead cells (no H2O2 stress treatment), at 10 uM” value in data set [2] is 0.46% ± 0.25%,.

Regarding `O=C(Nc1cccc(Cl)c1)c1ccc([N+](=O)[O-])o1` [Gr-1D], in data set [1] (setting [4]), the fold induction at 10 µM was determined as 2.79. Further, the fold induction at 10 µM in data set [1] (setting [5]) amounted to 49.3. In addition, in data set [1], the “Assay 6: H2O2-resistant, at 10 uM” value is “YES”. For the same molecule, in data set [2], the “PI cell-death imaging without H2O2” value is “YES”; the “Percentage … (qualitative)” value is given as “increased the percentage”; the “PI-positive dead cells” value came to 4.2±1.4%; the “Percentage of propidium iodide-positive dead cells (no H2O2 stress treatment), at 10 uM” value is recorded as 4.16% ± 1.39%,.

On to `N=C1S/C(=C\c2cn(-c3ccccc3)nc2-c2cccs2)C(=O)N1c1nccs1` [Gr-6C], for which the fold induction at 10 µM in data set [1] (setting [4]) was determined as 0.01; in data set [1] (setting [5]) it was 50.6. Besides, the “Assay 6: H2O2-resistant, at 10 uM” value in data set [1] is “YES”. In addition, in data set [2], the “Percentage of propidium iodide-positive dead cells (no H2O2 stress treatment), at 10 uM” value is given as 0.66% ± 0.26%,.

For `COc1ccc(C(=O)/C=C/c2ccccc2Br)c(OC)c1` [Gr-4B], the values for the fold induction at 10 µM in data set [1] (setting [4]) and in data set [1] (setting [5]) were 13.7 and 55.6, respectively. Moreover, in data set [1], the “Assay 6: H2O2-resistant, at 10 uM” value is given as “YES”. Further, the “Percentage of propidium iodide-positive dead cells (no H2O2 stress treatment), at 10 uM” value in data set [2] is listed as 0.36% ± 0.13%,.

As for `O=C(Nc1cc(C(F)(F)F)ccc1Cl)c1ccc([N+](=O)[O-])o1` [Gr-1B], the fold induction at 10 µM in data set [1] (setting [4]) amounted to 0.51. Further, the fold induction at 10 µM in data set [1] (setting [5]) amounted to 53.7. For the same molecule, in data set [1], the “Assay 6: H2O2-resistant, at 10 uM” value is given as “YES”. In addition, in data set [2], the “PI cell-death imaging without H2O2” value is given as “YES”; the “PI-positive dead cells” value is reported as 1.0%±0.3%; the “Percentage of propidium iodide-positive dead cells (no H2O2 stress treatment), at 10 uM” value is 1.03% ± 0.34%,.

In the case of `O=C(Nc1nc(C23CC4CC(CC(C4)C2)C3)cs1)C(c1ccccc1)c1ccccc1` [O10], the fold induction at 10 µM in data set [1] (setting [4]) amounted to 12.6; in data set [1] (setting [5]) it was 8.91. For the same molecule, in data set [1], the “Assay 6: H2O2-resistant, at 10 uM” value is reported as “YES”. Further, the “Percentage of propidium iodide-positive dead cells (no H2O2 stress treatment), at 10 uM” value in data set [2] was 0.54% ± 0.16%,.

On to `CCc1ccc(Oc2nc3ccccn3c(=O)c2/C=C(\C#N)C(=O)NCc2ccco2)cc1` [Gr-5B], for which the fold induction at 10 µM in data set [1] (setting [4]) came to 9.16; in data set [1] (setting [5]) it was 13.3. Moreover, the “Assay 6: H2O2-resistant, at 10 uM” value in data set [1] was “YES”. The “Percentage of propidium iodide-positive dead cells (no H2O2 stress treatment), at 10 uM” value in data set [2] is 0.45% ± 0.15%,.

As to `CCc1ccccc1NC(=O)c1ccc([N+](=O)[O-])o1` [Gr-1C], the fold induction at 10 µM in data set [1] (setting [4]) came out at 15.2. The fold induction at 10 µM in data set [1] (setting [5]) is 49.1. In data set [1], the “Assay 6: H2O2-resistant, at 10 uM” value was “YES”. Besides, in data set [2], the “PI cell-death imaging without H2O2” value was “YES”; the “Percentage … (qualitative)” value is reported as “increased the percentage”; the “PI-positive dead cells” value came out at 3.5±1.3%; the “Percentage of propidium iodide-positive dead cells (no H2O2 stress treatment), at 10 uM” value is 3.51% ± 1.28%,.
